Results taken from US20080274892A1, “Novel Haloalkylsulfonanilide Derivative, Herbicide, and Method of Use Thereof” (priority 2005, published 2008).

How the values were obtained:
bulrush [1] = assay: Test Example 1: herbicidal efficacy on rice paddy weeds pre-emergence; assay type: in vivo, Scirpus juncoides; conditions: 21 days
[2] = system: transplanted paddy rice plant and Bulrush; assay: Test Example 5: selectivity between transplanted paddy rice plant and weeds; assay type: in vivo; conditions: (highest dosage with no phytotoxicity to paddy rice)/(lowest dosage with effective level 4 on Bulrush); rice 3000-100 g/ha, Bulrush 300-10 g/ha; 21 days
Experimental: (§1) The standard of judgment for herbicidal efficacy (degree of growth inhibition) and phytotoxicity 4 . . . 90%-100% of herbicidal efficacy or phytotoxicity 3 . . . 70%-89% of herbicidal efficacy or phytotoxicity 2 . . . 40%-69% of herbicidal efficacy or phytotoxicity 1 . . . 1%-39% of herbicidal efficacy or phytotoxicity 0 . . . 0% of herbicidal efficacy or phytotoxicity
Phytotoxicity test for transplanted paddy rice plants was carried out, as in Test Example 3, by the treatment of 3000, 1000, 300 and 100 (g/ha of the active ingredient) dosage, and herbicidal test to weed post-emergence was carried out to Burlush seeded as in Test Example 2 treating at 300, 100, 30 and 10 (g/ha) dosage. The pots were kept in a hot house for 21 days after the treatment, and the phytotoxicity and the herbicidal efficacy was investigated and evaluated according to the standard in Test Example 1 by comparing with the untreated control. […] Further, as a comparative compound, the compound No. 6-28 described in the JP-A-2004-107322 was used.

[3] = system: paddy rice plant (cultivar: Nihonbare); assay: Test Example 3: phytotoxicity test for transplanted paddy rice plant; assay type: in vivo; conditions: transplanted rice, 21 days after treatment
How it was run: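 Clay loam soil was placed in a 75 cm^2 plastic pot and flooded to a water depth of 5 cm. Two Nihonbare paddy rice plants at the two-leaf stage were transplanted 1 cm deep and grown in a hot house. After treatment, pots stayed in the hot house for 21 days, and phytotoxicity was then graded against an untreated control.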

false pimpernel [4] = assay: Test Example 2: herbicidal efficacy on rice paddy weeds post-emergence; assay type: in vivo, Lindernia pyxidaria; conditions: post-emergence, one leaf stage, 21 days after treatment
bulrush [5] = assay: as above; assay type: in vivo, Scirpus juncoides; conditions: post-emergence, one leaf stage, 21 days after treatment
bulrush [6] = assay: Test Example 4: low dosage test for rice paddy weeds; assay type: in vivo, Scirpus juncoides; conditions: 300 g/ha as an active ingredient; plants treated at the one leaf stage; 21 days after treatment; vs untreated control
Source text: as §1
A 75 cm^2 plastic pot was filled with soil (clay loam) and planted seeds of bulrush which is a rice paddy weed. After covering the top with 75 cm^3 soil, the pot was filled with water so that the soil submerged under 5 cm depth of water and kept in a hot house. The test plants, at the one leaf stage, were treated with the solution of a formulation containing the compound of the present invention as an active ingredient at the predetermined effective dosage (300 g/ha as an active ingredient). The pots were kept in a hot house for 21 days after the treatment and the herbicidal efficacy was investigated and evaluated according to the standard in Test Example 1 by comparing with the untreated control. Further, as a comparative compound, the compound No. 6-28 described in the JP-A-2004-107322 was used.

false pimpernel [7] = assay: Test Example 1: herbicidal efficacy on rice paddy weeds pre-emergence; assay type: in vivo, Lindernia pyxidaria; conditions: 21 days
barnyard glass = assay: Test Example 2: herbicidal efficacy on rice paddy weeds post-emergence; assay type: in vivo, Echinochloa crus-galli; conditions: post-emergence, one leaf stage, 21 days after treatment
How it was run: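 Efficacy on paddy weeds was scored on a 0 to 4 growth-inhibition scale: 4 for 90%-100%, 3 for 70%-89%, 2 for 40%-69%, 1 for 1%-39% and 0 for 0%. Barnyard glass was grown in clay loam in 75 cm^2 pots under 5 cm of water in a hot house. It was compared with untreated pots 21 days after treatment.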

[8] = dosage 1000 g/ha, treated 5 days after transplantation

Compound | Bulrush pre (herbicidal efficacy grade) (bulrush [1]; dosage 300 g/ha) | Selective Index [2] | Phytotoxicity to paddy rice ([3]; dosage 300 g/ha) | False pimpernel post (herbicidal efficacy grade) (false pimpernel [4]; dosage 300 g/ha) | Bulrush post (herbicidal efficacy grade) (bulrush [5]; dosage 300 g/ha) | Herbicide effect to Bulrush (bulrush [6]) | False pimpernel pre (herbicidal efficacy grade) (false pimpernel [7]; dosage 300 g/ha) | Bulrush pre (herbicidal efficacy grade) (bulrush [1]; dosage 1000 g/ha) | Phytotoxicity to paddy rice [3, 8] | False pimpernel post (herbicidal efficacy grade) (false pimpernel [4]; dosage 1000 g/ha) | Bulrush post (herbicidal efficacy grade) (bulrush [5]; dosage 1000 g/ha) | False pimpernel pre (herbicidal efficacy grade) (false pimpernel [7]; dosage 1000 g/ha) | Burnyard grass post (herbicidal efficacy grade) (barnyard glass; dosage 300 g/ha) | Burnyard grass post (herbicidal efficacy grade) (barnyard glass; dosage 1000 g/ha)
COCC1(C)CN(Cc2ccccc2N(C(=O)OC)S(=O)(=O)C(F)(F)F)C(=O)O1 (stereo not shown) [1-147] | 4 (90%-100% of herbicidal efficacy or phytotoxicity) | 10 | 1 (1%-39% of herbicidal efficacy or phytotoxicity) | 4 (90%-100% of herbicidal efficacy or phytotoxicity) | 4 (90%-100% of herbicidal efficacy or phytotoxicity) | 4 (90%-100% of herbicidal efficacy or phytotoxicity) | 4 (90%-100% of herbicidal efficacy or phytotoxicity) |  |  |  |  |  |  | 
COC(=O)N(c1ccccc1CN1CC(C(F)(F)F)OC1=O)S(=O)(=O)C(F)(F)F (stereo not shown) [1-151] |  | 3 |  |  |  | 3 (70%-89% of herbicidal efficacy or phytotoxicity) |  | 4 (90%-100% of herbicidal efficacy or phytotoxicity) | 1 (1%-39% of herbicidal efficacy or phytotoxicity) | 4 (90%-100% of herbicidal efficacy or phytotoxicity) | 4 (90%-100% of herbicidal efficacy or phytotoxicity) | 4 (90%-100% of herbicidal efficacy or phytotoxicity) |  | 
CCC1(CC)CN(Cc2ccccc2N(C(=O)OC)S(=O)(=O)C(F)(F)F)C(=O)O1 [1-109] |  | ≧30 |  |  |  | 4 (90%-100% of herbicidal efficacy or phytotoxicity) |  | 4 (90%-100% of herbicidal efficacy or phytotoxicity) | 1 (1%-39% of herbicidal efficacy or phytotoxicity) | 4 (90%-100% of herbicidal efficacy or phytotoxicity) | 4 (90%-100% of herbicidal efficacy or phytotoxicity) | 4 (90%-100% of herbicidal efficacy or phytotoxicity) |  | 
O=C1OC(COc2ccccc2)CN1Cc1ccccc1NS(=O)(=O)C(F)(F)F (racemic) [Compound 1-51] | 3 (70%-89% of herbicidal efficacy or phytotoxicity) |  | 0 (0% of herbicidal efficacy or phytotoxicity) | 3 (70%-89% of herbicidal efficacy or phytotoxicity) | 4 (90%-100% of herbicidal efficacy or phytotoxicity) |  | 4 (90%-100% of herbicidal efficacy or phytotoxicity) |  |  |  |  |  | 0 (0% of herbicidal efficacy or phytotoxicity) | 
O=C1OC2(CCC2)CN1Cc1ccccc1NS(=O)(=O)C(F)(F)F [1-87] | 4 (90%-100% of herbicidal efficacy or phytotoxicity) | 3 | 1 (1%-39% of herbicidal efficacy or phytotoxicity) | 4 (90%-100% of herbicidal efficacy or phytotoxicity) | 4 (90%-100% of herbicidal efficacy or phytotoxicity) | 3 (70%-89% of herbicidal efficacy or phytotoxicity) | 4 (90%-100% of herbicidal efficacy or phytotoxicity) |  |  |  |  |  |  | 
O=C1OC(c2ccccc2)CN1Cc1ccccc1NS(=O)(=O)C(F)(F)F (stereo not shown) [Compound 1-41] |  |  |  |  |  |  |  | 4 (90%-100% of herbicidal efficacy or phytotoxicity) | 1 (1%-39% of herbicidal efficacy or phytotoxicity) | 2 (40%-69% of herbicidal efficacy or phytotoxicity) | 3 (70%-89% of herbicidal efficacy or phytotoxicity) | 4 (90%-100% of herbicidal efficacy or phytotoxicity) |  | 4 (90%-100% of herbicidal efficacy or phytotoxicity)
